# Results as given in patent publication US7462636B2, “Broadspectrum substituted benzisoxazole sulfonamide HIV protease inhibitors” (priority 2002, dated 2008).
# Like-named read-outs stand apart in the source and are kept apart here.
# Assays:
# [1] = tested on: HIV strain E (protease mutant); test: Antiviral spectrum, mutant HIV strain E; assay type: cell-based; details: FR=EC50(mutant strain)/EC50(HIV-1 strain LAI); calculated averages
# Procedure: (§1) HIV- or mock-infected MT4 cells were incubated for five days in the presence of various concentrations of the inhibitor. At the end of the incubation period, all HIV-infected cells have been killed by the replicating virus in the control cultures in the absence of any inhibitor. Cell viability is measured by measuring the concentration of MTT, a yellow, water soluble tetrazolium dye that is converted to a purple, water insoluble formazan in the mitochondria of living cells only. Upon solubilization of the resulting formazan crystals with isopropanol, the absorbance of the solution is monitored at 540 nm. The values correlate directly to the number of living cells remaining in the culture at the completion of the five day incubation. The inhibitory activity of the compound was monitored on the virus-infected cells and was expressed as EC50 and EC90. These values represent the amount of the compound required to protect 50% and 90%, respectively, of the cells from the cytopathogenic effect of the virus. […] Wherever results are reported as e.g. pEC50 or pCC50 values, the result is expressed as the negative logarithm of the result expressed as EC50 or CC50 respectively. […]
# (§2) As a measure of the broad spectrum activity of the present compounds, the fold resistance (FR), defined as FR=EC50(mutant strain)/EC50(HIV-1 strain LAI), was determined.
# [2] = tested on: HIV strain B (protease mutant); test: Antiviral spectrum, mutant HIV strain B; assay type: cell-based; details: FR=EC50(mutant strain)/EC50(HIV-1 strain LAI); calculated averages
# Procedure: as §1, §2
# HIV-1 strain LAI = test: Cellular anti-HIV assay (MT4 cells, MTT), wild type strain; assay type: cell-based
# Procedure: The compounds of the present invention were examined for anti-viral activity in a cellular assay. […] The cellular assay was performed according to the following procedure.
# HIV- or mock-infected MT4 cells were incubated for five days in the presence of various concentrations of the inhibitor. At the end of the incubation period, all HIV-infected cells have been killed by the replicating virus in the control cultures in the absence of any inhibitor. Cell viability is measured by measuring the concentration of MTT, a yellow, water soluble tetrazolium dye that is converted to a purple, water insoluble formazan in the mitochondria of living cells only. Upon solubilization of the resulting formazan crystals with isopropanol, the absorbance of the solution is monitored at 540 nm. The values correlate directly to the number of living cells remaining in the culture at the completion of the five day incubation. The inhibitory activity of the compound was monitored on the virus-infected cells and was expressed as EC50 and EC90. […] Wherever results are reported as e.g. pEC50 or pCC50 values, the result is expressed as the negative logarithm of the result expressed as EC50 or CC50 respectively.
# as §2
# [3] = tested on: HIV strain G (protease mutant); test: Antiviral spectrum, mutant HIV strain G; assay type: cell-based; details: FR=EC50(mutant strain)/EC50(HIV-1 strain LAI); calculated averages
# Procedure: as §1, §2
# [4] = tested on: HIV strain D (protease mutant); test: Antiviral spectrum, mutant HIV strain D; assay type: cell-based; details: FR=EC50(mutant strain)/EC50(HIV-1 strain LAI); calculated averages
# Procedure: as §1, §2
# [5] = tested on: HIV strain F (protease mutant); test: Antiviral spectrum, mutant HIV strain F; assay type: cell-based; details: FR=EC50(mutant strain)/EC50(HIV-1 strain LAI); calculated averages
# Procedure: as §1, §2
# [6] = tested on: HIV strain C (protease mutant); test: Antiviral spectrum, mutant HIV strain C; assay type: cell-based; details: FR=EC50(mutant strain)/EC50(HIV-1 strain LAI); calculated averages
# Procedure: as §1, §2
# [7] = Oral availability in the rat (serum concentration, LC-MS); assay type: in vivo; details: both sexes, 10 mg/kg
# Procedure: The oral availability of a selected compound was evaluated in a standard set of kinetic experiments, primarily in male and female rats and secondarily in male and female dogs. The compound was formulated as a 20 mg/ml solution or suspension in DMSO, PEG400 or cyclodextin 40% (CD40%) in water. For most experiments in the rat, three dosing groups were formed: 1/single intraperitoneal dose at 20 mg/kg using the DMSO formulation; 2/single oral dose at 20 mg/kg using the PEG400 formulation and 3/single oral dose at 20 mg/kg using the cyclodextrin formulation. In the dog, only the oral route of administration was used. Blood was sampled at regular time intervals after dosing and drug concentrations in the serum were determined using a LC-MS bioanalytical method. Serum concentrations were expressed in […] after normalization to 10 mg/kg. Below, the serum concentration at 30 minutes and at 3 hours is listed as these values reflect the extent of absorption (30′) and the speed of elimination (180′). The oral bioavailability in the rat was examined using DMSO and PEG formulations (cfr supra). The serum concentration following administration of 10 mg/kg of compound 1 was 10.2 ng/ml at 30 min (DMSO) and 22.2 ng/ml (PEG). The intraperitoneal absorption of a dose of 10 mg/kg (DMSO formulation) was 2076 ng/ml 30 minutes (min) following administration and 208 ng/ml 180 min following administration.
# [8] = tested on: HIV strain A (protease mutant); test: Antiviral spectrum, mutant HIV strain A; assay type: cell-based; details: FR=EC50(mutant strain)/EC50(HIV-1 strain LAI); calculated averages
# Procedure: as §1, §2
# [9] = Toxicity on mock-infected MT4 cells (MTT); assay type: cell-based; details: human
# Procedure: HIV- or mock-infected MT4 cells were incubated for five days in the presence of various concentrations of the inhibitor. At the end of the incubation period, all HIV-infected cells have been killed by the replicating virus in the control cultures in the absence of any inhibitor. Cell viability is measured by measuring the concentration of MTT, a yellow, water soluble tetrazolium dye that is converted to a purple, water insoluble formazan in the mitochondria of living cells only. Upon solubilization of the resulting formazan crystals with isopropanol, the absorbance of the solution is monitored at 540 nm. The values correlate directly to the number of living cells remaining in the culture at the completion of the five day incubation. The inhibitory activity of the compound was monitored on the virus-infected cells and was expressed as EC50 and EC90. These values represent the amount of the compound required to protect 50% and 90%, respectively, of the cells from the cytopathogenic effect of the virus. […] Wherever results are reported as e.g. pEC50 or pCC50 values, the result is expressed as the negative logarithm of the result expressed as EC50 or CC50 respectively.
# as §2
Compound,FR towards mutant E [1],FR towards mutant B [2],"EC50 (HIV-1 strain LAI; Human immunodeficiency virus 1, calculated averages, read-out: WT (pEC50) (converted)) [nM]",FR towards mutant G [3],FR towards mutant D [4],FR towards mutant F [5],FR towards mutant C [6],"concentration at 30 min ([7]; ip, intraperitoneal, DMSO formulation, 30 min following administration, read-out: intraperitoneal absorption (serum concentration)) [ng/mL]","concentration at 180 min ([7]; ip, intraperitoneal, DMSO formulation, 180 min following administration, read-out: intraperitoneal absorption (serum concentration)) [ng/mL]","concentration at 30 min ([7]; po, oral, DMSO formulation, at 30 min, read-out: serum concentration) [ng/mL]","concentration at 30 min ([7]; po, oral, PEG formulation, read-out: serum concentration) [ng/mL]",FR towards mutant A [8],CC50 at 5 days [9] [nM],WT (pEC50) (HIV-1 strain LAI; calculated averages)
"CC(C)CN(C[C@@H](O)[C@H](Cc1ccccc1)NC(=O)O[C@H]1CO[C@H]2OCC[C@H]21)S(=O)(=O)c1ccc2onc(N)c2c1 [Compound 1, {3-[(3-Amino-benzo[d]isoxazole-5-sulfonyl)-isobutyl-amino]-1-benzyl-2-hydroxy-propyl}-carbamic acid hexahydro-furo[2,3-b]furan-3-yl ester]",0.30,0.78,7.94,6.9,0.35,0.85,0.49,2080,208,10.2,22.2,0.63,> 100000,–
5-Methyl-isoxazole-4-carboxylic acid{3-[(3-amino-benzo[d]isoxazole-5-sulfonyl)-isobutyl-amino]-1-benzyl-2-hydroxy-propyl}-amide [Compound 6],7.2,5.6,–,16,16,16,5.5,–,–,–,–,16,–,6.2
